Experimental data from the NIST ThermoML archive (doi:10.1021/acs.jced.5b00654).
Values joined by “and” are separate entries in the source; they are usually repeats but may differ in a detail not shown here. Equal entries are not always repeated.

Details: Fluid (supercritical or subcritical phases); for mass density: Buoyancy - hydrostatic balance with magnetic suspension - one sinker; for viscosity: Vibrating wire viscometry

CCCC [butane]
Details	mass density	viscosity
323.14 K, 58.2 kPa	1.2744 kg/m3 and 1.2766 kg/m3	0.007994 mPa·s and 0.007988 mPa·s
323.14 K, 58.21 kPa	1.2766 kg/m3	0.00799 mPa·s
323.14 K, 66.38 kPa	1.4575 kg/m3 and 1.4567 kg/m3	0.007991 mPa·s and 0.007994 mPa·s
323.14 K, 66.39 kPa	1.4553 kg/m3	0.007994 mPa·s
323.14 K, 90.51 kPa	1.9979 kg/m3	0.007987 mPa·s
323.14 K, 90.52 kPa	1.9986 kg/m3	0.00799 mPa·s
323.14 K, 112.93 kPa	2.5057 kg/m3	0.00799 mPa·s
323.14 K, 112.94 kPa	2.5035 kg/m3	0.007991 mPa·s
323.14 K, 112.96 kPa	2.5057 kg/m3	0.00799 mPa·s
323.14 K, 132.43 kPa	2.9506 kg/m3	0.007991 mPa·s
323.14 K, 132.44 kPa	2.9492 kg/m3	0.007989 mPa·s
323.14 K, 132.46 kPa	2.9499 kg/m3	0.007989 mPa·s
323.14 K, 184.24 kPa	4.1645 kg/m3	0.007979 mPa·s
323.14 K, 215.63 kPa	4.9096 kg/m3	0.007976 mPa·s
323.14 K, 215.65 kPa	4.9111 kg/m3	0.007976 mPa·s
323.14 K, 215.87 kPa	4.9169 kg/m3	0.007974 mPa·s
323.14 K, 261.28 kPa	6.0252 kg/m3	0.007968 mPa·s
323.15 K, 150.03 kPa	3.3622 kg/m3	0.007982 mPa·s
323.15 K, 150.04 kPa	3.3622 kg/m3	0.007982 mPa·s
323.15 K, 184.35 kPa	4.1652 kg/m3	0.00798 mPa·s
323.15 K, 184.36 kPa	4.1667 kg/m3	0.007979 mPa·s
348.03 K, 813.85 kPa	19.576 kg/m3	0.008652 mPa·s
348.03 K, 813.99 kPa	19.581 kg/m3	0.008648 mPa·s
348.03 K, 814.13 kPa	19.586 kg/m3	0.008649 mPa·s
348.12 K, 677.52 kPa	15.682 kg/m3	0.008631 mPa·s
348.12 K, 677.82 kPa	15.691 kg/m3	0.008631 mPa·s
348.13 K, 760.25 kPa	17.999 kg/m3	0.00864 mPa·s
348.13 K, 760.34 kPa	18.002 kg/m3	0.008637 mPa·s
348.14 K, 93.82 kPa	1.9124 kg/m3	0.008599 mPa·s
348.14 K, 93.83 kPa	1.9131 kg/m3	0.008597 mPa·s
348.14 K, 293.19 kPa	6.2173 kg/m3	0.008602 mPa·s
348.14 K, 293.73 kPa	6.2296 kg/m3	0.008602 mPa·s
348.14 K, 618.24 kPa	14.097 kg/m3	0.008621 mPa·s
348.14 K, 618.34 kPa	14.099 kg/m3	0.008628 mPa·s
348.15 K, 63.28 kPa	1.2845 kg/m3	0.008588 mPa·s
348.15 K, 63.3 kPa	1.286 kg/m3	–
